{
  "source": "paper PMC5175396",
  "about": "“Cytotoxicity of Plumbagin, Rapanone and 12 other naturally occurring Quinones from Kenyan Flora towards human carcinoma cells” (BMC Pharmacology & Toxicology, 2016)",
  "key": {"[1]": {"tested_on": "HepG2 hepatocarcinoma cells", "assay": "Neutral red (NR) uptake cytotoxicity assay, HepG2", "type": "cell-based, human", "details": "for IC50: Homo sapiens, read-out: IC50 HepG2", "description": "(§1) Six human cancer cell lines and one normal cell line were used in this study. They included A549 human non-small cell lung cancer (NSCLC) cell line, obtained from the Institute for Fermentation, Osaka (IFO, Japan) and provided by Prof. Dr. Tansu Koparal (Anadolu University, Eskisehir, Turkey), SPC212 human mesothelioma cell line obtained from American Type Culture Collection (ATCC) and provided by Dr. Asuman Demiroğlu Zergeroğlu (Gebze Technical University, Kocaeli, Turkey), DLD-1 colorectal adenocarcinoma cell lines obtained from ATCC (CCL-221), Caco2 colorectal adenocarcinoma cells (ATCC, HTB-37) obtained from the ŞAP Institute of Turkey (Ankara), HepG2 hepatocarcinoma cells (ATCC, HB-8065) and MCF-7 breast adenocarcinoma cells (ATCC, HTB-22) were provided by Prof. Dr. Tansu Koparal (Anadolu University, Eskisehir, Turkey). The normal CRL2120 human skin fibroblasts were obtained from ATCC [CCD1094Sk (ATCC, CRL-2120)]. The cells were maintained as a monolayer in DMEM medium (Sigma-aldrich, Munich, Germany) medium supplemented with 10% fetal calf serum and 1% penicillin (100 U/mL)-streptomycin (100 μg/mL) in a humidified 5% CO2 atmosphere at 37 °C.\n(§2) The cytotoxicity of samples was performed by NR uptake assay as previously described. This method is based on the ability of viable cells to incorporate and bind the supravital dye NR in the lysosomes. The procedure is cheaper and more sensitive than other cytotoxicity tests. […] Briefly, cells were detached by treatment with 0.25% trypsin/EDTA (Invitrogen) and an aliquot of 1 × 10^4 cells was placed in each well of a 96-well cell culture plate […]. The cells were allowed to attach overnight and subsequently treated with different concentrations of the 14 compounds. Each of the studied samples was immediately added in varying concentrations in additional 100 μL of culture medium to obtain a total volume of […]/well. After 72 h incubation in humidified 5% CO2 atmosphere at 37 °C, the medium was removed and 200 μL fresh medium containing 50 μg/mL NR was added to each well and incubation continued for an additional 3 h at 37 °C in 5% CO2 atmosphere. The dye medium was then removed and each well was then washed rapidly with 200 μL phosphate buffer saline (PBS) followed by addition of 200 μL of acetic acid-water-ethanol in water (1:49:50). The plates were kept for 15 min at room temperature to extract the dye and then shaken for a few minutes on a GFL 3012 shaker (Gesellschaft für Labortechnik mbH, Burgwedel, Germany). Absorbance was measured on ELx 808 Ultra Microplate Reader (Biotek) equipped with a 540 nm filter. Each assay was done at least three times, with three replicates each. The viability was evaluated based on a comparison with untreated cells. The IC50 values represent the sample’s concentrations required to inhibit 50% of cell proliferation and were calculated from a calibration curve by linear regression using Microsoft Excel."}, "[2]": {"tested_on": "six tested cancer cell lines (A549, SPC212, DLD-1, Caco-2, MCF-7, HepG2)", "assay": "Neutral red uptake assay, statements over the six tested cancer cell lines", "type": "cell-based, human", "details": "Homo sapiens, bound valid for all six cancer cell lines; neutral red assay", "description": "as §1, §2"}, "[3]": {"tested_on": "SPC212 human mesothelioma cell line", "assay": "Neutral red (NR) uptake cytotoxicity assay, SPC212", "type": "cell-based", "description": "as §1, §2"}, "MCF-7 cells [4]": {"tested_on": "MCF-7 cells", "assay": "Flow cytometry cell cycle analysis and detection of apoptotic cells", "type": "cell-based, human", "details": "IC50, 72 h, non-treated cells 3.1%", "description": "The cell-cycle analysis was performed by flow cytometry using BD cycletest^TM Plus DNA Kit Assay (BD Biosciences, San Jose, USA). The BD Cycletest™ Plus DNA kit provides a set of reagents for isolating and staining cell nuclei. Flow cytometric analysis of differentially stained cells is used to estimate the DNA index (DI) and cell-cycle phase distributions. Briefly, MCF-7 cells (3 mL, 1 × 10^5 cells/mL) were seeded into each well of 6-well plates and allowed to attach for 24 h. […] The untreated cells (control) were also included in the assay. They were further trypsinized and suspended in 1 mL PBS, then centrifuged at 400 g for 5 min at room temperature (RT). The cells were further processed according to the manufacturer protocol: addition of 250 μL of solution A (trypsin buffer), 10 min incubation at RT followed by the addition of 200 μL of solution B (trypsin inhibitor and RNAse buffer), 10 min incubation at RT followed by the addition of 200 μL of solution C (2–8 °C) (propidium iodide stain solution), 10 min on ice. The cells were further measured on a BD FACS Aria I Cell Sorter Flow Cytometer (Becton-Dickinson, Germany). For each sample, 10^4 cells were counted. For PI excitation, an argon-ion laser emitting at 488 nm was used. Cytographs were analyzed using BD FACSDiva™ Flow Cytometry Software Version 6.1.2 (Becton-Dickinson)."}, "MCF-7 cells [5]": {"tested_on": "MCF-7 cells", "assay": "Measurement of reactive oxygen species (ROS), DCFH-DA", "type": "cell-based, human", "details": "at IC50, 24 h", "description": "This is a cell-based assay for measuring hydroxyl, peroxyl, or other reactive oxygen species activity within a cell. The assay employs the cell-permeable fluorogenic probe 2′,7′-dichlorodihydrofluorescin diacetate (DCFH-DA). DCFH-DA is diffused into cells and is deacetylated by cellular esterases to non-fluorescent 2′,7′-dichlorodihydrofluorescin (DCFH), which is rapidly oxidized to highly fluorescent 2′,7′-dichlorofluorescein (DCF) by ROS. […] After addition of 100 μL 1× DCFH-DA/DMEM solution to cells and incubation at 37 °C for 30–60 min, the fluorescence was measured using SpectraMax® M5 Microplate Reader (Molecular Devices, Biberach, Germany) at 480/530 nm. All experiments were performed at least in triplicate."}, "MCF-7 cells [6]": {"tested_on": "MCF-7 cells", "assay": "Mitochondrial membrane potential (MMP) analysis, JC-1 staining, flow cytometry", "type": "cell-based, human", "details": "IC50 (C3), 72 h, control 4.3%", "description": "The MMP was analyzed in MCF-7 cells by 5,5′,6,6′-tetrachloro-1,1′,3,3′-tetraethylbenzimidazolylcarbocyanine iodide) (JC-1; Biomol, Hamburg, Germany) staining as previously reported. […] Subsequently, cells were measured in a BD FACS Aria I Cell Sorter Flow Cytometer (Becton-Dickinson, Germany). The JC-1 signal was measured at an excitation of 561 nm (150 mW) and detected using a 586/15 nm band-pass filter. The signal was analyzed at 640 nm excitation (40 mW) and detected using a 730/45 nm bandpass filter. Cytographs were analyzed using BD FACSDiva™ Flow Cytometry Software Version 6.1.2 (Becton-Dickinson). All experiments were performed at least in triplicate."}, "[7]": {"tested_on": "normal CRL2120 human skin fibroblasts", "assay": "Neutral red (NR) uptake cytotoxicity assay, normal CRL2120 fibroblasts", "type": "cell-based", "details": "Skin fibroblast, 72 h incubation", "description": "as §1, §2"}, "[8]": {"tested_on": "Caco2 colorectal adenocarcinoma cells", "assay": "Neutral red (NR) uptake cytotoxicity assay, Caco-2", "type": "cell-based, human", "details": "Homo sapiens, Caco-2; neutral red assay, 72 h incubation", "description": "as §1, §2"}, "[9]": {"tested_on": "MCF-7 breast adenocarcinoma cells", "assay": "Neutral red (NR) uptake cytotoxicity assay, MCF-7", "type": "cell-based, human", "details": "for IC50: Homo sapiens, MCF7, 72 h, read-out: IC50 MCF-7", "description": "as §1, §2"}, "[10]": {"tested_on": "DLD-1 colorectal adenocarcinoma cell lines", "assay": "Neutral red (NR) uptake cytotoxicity assay, DLD-1", "type": "cell-based, human", "details": "for IC50: Homo sapiens, read-out: IC50 DLD-1", "description": "as §1, §2"}, "[11]": {"assay": "Neutral red (NR) uptake cytotoxicity assay, Caco-2", "type": "cell-based, human", "details": "human; IC50 in CRL2120 normal fibroblasts divided by IC50 in Caco-2; read-out: selectivity index Caco-2 (converted)", "description": "as §1, §2"}, "[12]": {"tested_on": "A549 human non-small cell lung cancer (NSCLC) cell line", "assay": "Neutral red (NR) uptake cytotoxicity assay, A549", "type": "cell-based", "description": "as §1\nas §2, with “lysosomes.” for “lysosomes. The procedure is cheaper and more sensitive than other cytotoxicity tests.”"}, "[13]": {"tested_on": "PF-382 leukemia T-cells, MiaPaCa-2 pancreatic cells, U87MG glioblastoma-astrocytoma cells, Colo-38 skin melanoma cells, HeLa and Caski cervical carcinoma cells", "design": "method as in PMID 21886765", "details": "PF-382, MiaPaCa-2, U87MG, Colo-38, HeLa, read-out: IC50 against a panel of cancer cell lines; cited from earlier work"}},
  "note": "Where two headings read alike, the source gives them in different places.",
  "data": [
    {"smiles": "COc1cccc2c1C(=O)c1c(O)c3c(c(O)c1C2=O)C[C@@](O)(C(=O)CO)C[C@@H]3O[C@H]1C[C@H](N)[C@H](O)[C@H](C)O1", "note": "[Doxorubicin, reference compound]", "values": [
      {"measurement": "IC50", "setting": "[1]; HepG2, 72 h", "result": "0.18 ± 0.03", "unit": "µM"},
      {"measurement": "IC50", "setting": "[2]", "result": "< 100", "unit": "µM"},
      {"measurement": "IC50", "setting": "[3]; Homo sapiens, 72 h, read-out: IC50 SPC#", "result": "0.07 ± 0.01", "unit": "µM"},
      {"measurement": "Sub-G0/G1 (apoptotic) cells, % of cells", "setting": "MCF-7 cells [4]", "result": 60, "unit": "%"},
      {"measurement": "increase in ROS levels as compared with non-treated cells", "setting": "MCF-7 cells [5]", "result": "more than 2 fold"},
      {"measurement": "MMP, gate P2 (loss / depletion of MMP)", "setting": "MCF-7 cells [6]", "result": 26, "unit": "%"},
      {"measurement": "IC50", "setting": "[7]", "result": "590 ± 10", "unit": "nM"},
      {"measurement": "IC50", "setting": "[8]", "result": "0.72 ± 0.13", "unit": "µM"},
      {"measurement": "IC50", "setting": "[9]", "result": "0.35 ± 0.05", "unit": "µM"},
      {"measurement": "IC50", "setting": "[10]; DLD-1, 72 h", "result": "0.37 ± 0.05", "unit": "µM"}
    ]},
    {"smiles": "CCCCCCCCCCCCCCCC1=C(O)C(=O)C=C(O)C1=O", "note": "[Compound 10, 2,5-dihydroxy-3-pentadecyl-2,5-cyclohexadiene-1,4-dione]", "values": [
      {"measurement": "IC50", "setting": "[1]; HepG2, neutral red assay, 72 h incubation", "result": "48.4 ± 3.73", "unit": "µM"},
      {"measurement": "selectivity index HepG2", "setting": "[1]; IC50 in CRL2120 normal fibroblasts divided by IC50 in HepG2", "result": "> 2.57"},
      {"measurement": "IC50", "setting": "[2]", "result": "< 100", "unit": "µM"},
      {"measurement": "IC50", "setting": "[3]; Homo sapiens, 72 h, neutral red assay, 72 h incubation, read-out: IC50 SPC212", "result": "< 10", "unit": "µM"},
      {"measurement": "selectivity index SPC212", "setting": "[3]; IC50 in CRL2120 normal fibroblasts divided by IC50 in SPC212", "result": "> 14.81"},
      {"measurement": "IC50", "setting": "[3]; neutral red assay, 72 h incubation, read-out: IC50 SPC212", "result": "8.39 ± 0.48", "unit": "µM"},
      {"measurement": "IC50", "setting": "[7]", "result": "> 124000", "unit": "nM"},
      {"measurement": "IC50", "setting": "[8]", "result": "27.8 ± 2.03", "unit": "µM"},
      {"measurement": "selectivity ratio at 72 h", "setting": "[11]", "result": "> 4.47"},
      {"measurement": "IC50", "setting": "[12]; Homo sapiens, A549, 72 h, neutral red assay, 72 h incubation", "result": "43.3 ± 2.72", "unit": "µM"},
      {"measurement": "selectivity index A549", "setting": "[12]; IC50 in CRL2120 normal fibroblasts divided by IC50 in A549", "result": "> 2.87"},
      {"measurement": "IC50", "setting": "[9]; neutral red assay, 72 h incubation", "result": "30.4 ± 8.64", "unit": "µM"},
      {"measurement": "selectivity index MCF-7", "setting": "[9]; IC50 in CRL2120 normal fibroblasts divided by IC50 in MCF-7", "result": "> 4.09"},
      {"measurement": "IC50", "setting": "[10]; DLD-1, neutral red assay, 72 h incubation", "result": "51.2 ± 5.54", "unit": "µM"},
      {"measurement": "selectivity index DLD-1", "setting": "[10]; IC50 in CRL2120 normal fibroblasts divided by IC50 in DLD-1", "result": "> 2.43"}
    ]},
    {"smiles": "CC(=O)c1cc2c(o1)C(=O)c1ccccc1C2=O", "note": "[2-acetylfuro-1,4-naphthoquinone]", "values": [
      {"measurement": "IC50", "setting": "[13]", "result": "< 10", "unit": "µM"}
    ]}
  ]
}
